Read-outs that look alike come from different tables or passages of the source.
Experiments:
[1] = target: T1, BRD4-1 (Homo sapiens, UniProt O60885); assay: Biochemical ALPHA assay: binding of BRD4_1 to acetylated histone H4 peptide; settings: 200 nM H4 peptide, 15 nM BRD4_1, 60 min at 25 °C; geometric mean of min. four determinations
T1 construct: made in house; host or cells: Escherichia coli
Protocol: Binding of the bromodomain BRD4_I to an acetylated histone H4 peptide was measured using a bead based Amplified Luminescent Proximity Homogeneous Assay (ALPHA). The synthetic peptide containing amino acids 1-18 of histone H4 was acetylated at lysine 5, 8, 12, 16 and conjugated to biotin ([…]-GSGSK-biotin) was purchased from Millipore. BRD4_I was expressed and purified from Escherichia coli as an N-terminal Hiss-tagged protein. Nickel-Chelate ALPHA acceptor beads (Perkin Elmer) were used to specifically bind BRD4—1 and ALPHA streptavidin donor beads (Perkin Elmer) were used because they specifically recognized the biotinylated H4 peptide. […] Assays were performed in 50 mM Hepes (pH 7.5), 150 mM NaCl, 0.1 mg/ml BSA, 0.01% (v/v) Brij, 0.5% (v/v) DMSO, 200 nM H4 peptide and 15 nM of BRD4—1 protein. After an assay reaction time of 60 minutes at 25° C., binding was measured with 20 µg/ml streptavidin donor beads and 20 μg/ml nickel-chelate acceptor beads. ALPHA signal was detected on an Envision plate reader ([…]; Em: 570 nm; Ex time: 180 ms). Data were normalized based on a positive (2 μM I-BET) and negative (DMSO) controls and IC50 values were calculated from the fit of the dose-response curves to a four-parameter equation. All IC50 values represent geometric mean values of a minimum of four determinations. These assays generally produced results within 3-fold of the reported mean.

[2] = target: T1, BRD4-1; assay: Biochemical HTRF (TR-FRET) assay: BRD4-1 binding to acetylated histone H4 peptide; settings: 200 nM H4 peptide, 60 nM BRD4-1, 60 min at 25 °C; geometric mean; read-out: IC50 HTBS BRD4-1 HTRF
Protocol: (§1) Binding of the two tandem bromodomains, BRD4 I and BRD4—2, to an acetylated histone H4 peptide were measured using a homogeneous time resolved fluorescence resonance energy transfer (TR-FRET) assay. The synthetic peptide containing amino acids 1-18 of histone H4 was acetylated at lysine 5, 8, 12, 16 and conjugated to biotin ([…]-GSGSK-biotin) was purchased from Millipore. BRD4_I and BRD4—2 were expressed and purified from Escherichia coli as N-terminal His6-tagged proteins. An XL665 labeled anti-His antibody (Cisbio) was used to specifically bind BRD4 and a cryptate labeled streptavidin protein was used because it specifically recognized the biotinylated H4 peptide. […] Assays were performed in 50 mM Hepes (pH 7.5), 150 mM NaCl, 0.1 mg/ml BSA, 0.01% (v/v) Brij, 0.5% (v/v) DMSO and 200 nM H4 peptide at the following concentrations for each BRD4 isoform: 60 nM BRD4—1 and 120 nM BRD4—2. After an assay reaction time of 60 minutes at 25° C., binding was measured with 2 nM cryptate labeled streptavidin and 10 nM anti-His-XL665 antibody. TR-FRET signal was detected on an Envision plate reader (Ex: 320 nm; Em: 615/665 nm; 100 μs delay and 200 μs read window). Data were normalized based on a positive (2 μM I-BET) and negative (DMSO) controls and IC50 values were calculated from the fit of the dose-response curves to a four-parameter equation. All IC50 values represent geometric mean values of a minimum of four determinations. These assays generally produced results within 3-fold of the reported mean.

[3] = target: T2, BRD4-2 (Homo sapiens, UniProt O60885); assay: Biochemical HTRF (TR-FRET) assay: BRD4-2 binding to acetylated histone H4 peptide; settings: 200 nM H4 peptide, 120 nM BRD4-2, 60 min at 25 °C; geometric mean; read-out: IC50 HTBS BRD4-2 HTRF
T2 construct: made in house; host or cells: Escherichia coli
Protocol: as §1

[4] = MT-4 proliferation assay in 384-well format (Cell Titer Glo); assay type: cell-based, human; settings: human, MT-4 cells, read-out: CC50 MT4 384
Protocol: Compounds were tested in a standardized high-throughput 384-well assay format. Each compound was serially diluted 3-fold in 100% DMSO in polypropylene 384-well plates using a Biomek FX Workstation, and 0.4 μL compound added to an assay plate containing 40 μL RPMI media. Compounds were arranged in a horizontal pattern, with 10 concentrations per compound, and 8 compounds added per plate. Due to low DMSO tolerability, the final DMSO concentration never exceeded 0.5% (v/v). Each assay plate contained 10 μM Puromycin and 0.5% DMSO in RPMI-1640 as positive and negative controls respectively. MT-4 cells (HTLV-1 transformed, human T lymphoblastoid cells, NIH Aids Reagent program) were added in volumes of 35 μL per well and 2,000 cells per well using a Biotek uFlow Workstation (Biotek, Winooski, Vt.), and the plates subsequently incubated for 5 days at 37° C. in an incubator set at 5% CO2 and 90% humidity.
After 5 days, 22 μL Cell Titer Glo (Promega) was added to the assay plates with a Biotek uFlow Workstation. Plates were subsequently placed on a Perkin Elmer Envision Plate Reader for 5 minutes before the luminescence signal was read. CC50 values were calculated from the compound concentration that caused a 50% decrease in luminescence signal, a measure of toxicity, and calculated by non-linear regression using Pipeline Pilot software (Accelrys, San Diego, Calif.).

[5] = target: T1, BRD4-1; assay: BRD4-1 Ligand KI assay (TR-FRET displacement of Cy5 labeled probe); assay type: binding; settings: 10 nM labeled ligand, 2 nM BRD4-1; Ki from IC50 by Cheng and Prusoff; read-out: BRD4-1 Ligand K1
Protocol: Binding of the two tandem bromodomains, BRD4-I and BRD4-2, to a Cy5 labeled probe/ligand (Compound 201-A) were measured using a homogeneous time resolved fluorescence resonance energy transfer (TR-FRET) assay.
(§2) The labeled ligand specifically binds BRD4-1 and BRD4-2 and can be displaced by a small molecule inhibitor that shares a similar or overlapping binding site. BRD4-I and BRD4-2 were expressed and purified from Escherichia coli as N-terminal His6-tagged proteins. A Eu-cryptate labeled anti-His antibody (Perkin Elmer) was used to specifically bind BRD4. […] Assays were performed in 50 mM Hepes (pH 7.5), 150 mM NaCl, 0.1 mg/ml BSA, 0.01% (v/v) Brij, 0.5% (v/v) DMSO and 10 nM labeled ligand at the following concentrations for each BRD4 isoform: 2 nM BRD4-1 and 0.5 nM BRD4-2. After an assay reaction time of 60 minutes at 25° C., binding was measured with 2 nM Eu-cryptate labeled anti-His antibody. TR-FRET signal was detected on an Envision plate reader (Ex: 320 nm; Em: 615/665 nm; 100 μs delay and 200 μs read window). Data were normalized based on a positive (2 μM I-BET) and negative (DMSO) controls and IC50 values were calculated from the fit of the dose-response curves to a four-parameter equation. All IC50 values represent geometric mean values of a minimum of four determinations. The IC50 values were converted to Ki values (dissociation constant for BRD4-inhibitor complex) using the Cheng and Prusoff equation for a competitive inhibitor mode of action. These assays generally produced results within 3-fold of the reported mean.

[6] = target: T2, BRD4-2; assay: BRD4-2 Ligand KI assay (TR-FRET displacement of Cy5 labeled probe); assay type: binding; settings: 10 nM labeled ligand, 0.5 nM BRD4-2; Ki from IC50 by Cheng and Prusoff; read-out: BRD4-2 Ligand K2
Protocol: as §2, with “BRD4-I” for “The labeled ligand specifically binds BRD4-1 and BRD4-2 and can be displaced by a small molecule inhibitor that shares a similar or overlapping binding site. BRD4-I”, “action.” for “action. These assays generally produced results within 3-fold of the reported mean.”

[7] = test system: c-Myc produced in MM1S cells; assay: c-Myc down regulation assay (MSD ELISA) in MM1S cells; assay type: cell-based; settings: Homo sapiens, MM1.S, 24 hrs incubation, geometric mean, read-out: cMYC EC50
Protocol: An enzyme linked immunosorbent assay using the Meso Scale Diagnostic (MSD) technology was used to detect levels of c-Myc produced in MM1S cells (ATCC). MM1S cells were cultured in RPMI-1640 media (Corning), supplemented with 10% FBS (Hyclone), 1% penicillin-streptomycin (Cellgro), 2-mercaptoethanol (Gibco) and seeded onto 384-tissue culture treated filter binding plates (Millipore) at a density of 40K cells/well containing titrations of small molecule inhibitors or DMSO (0.4%) in a volume of 100 μl of media. After an incubation time of 24 hrs, cells were lysed (1× lysis buffer (Thermo) supplemented with protease and phosphatase inhibitor cocktail (Thermo)) and the plates centrifuged (1000 rpm, 1 min) to capture c-Myc on MSD plates coated with a monoclonal c-Myc antibody (Origene). Assay wells were washed (3× Invitrogen wash buffer) and probed with a polyclonal c-Myc antibody (Abcam) and MSD detection antibody solution in order to detect levels of c-Myc on the MSD platform. c-Myc capture was reported in pg/ml based on a standard curve using recombinant c-Myc protein (Prosci). EC50 values were calculated from the fit of the dose-response curves to a four-parameter equation. All EC50 values represent geometric mean values of a minimum of four determinations. These assays generally produced results within 3-fold of the reported mean.

[8] = Table 1, 50% decrease in luminescence signal
[9] = Table 2, 50% decrease in luminescence signal

## Cc1ccc2ncccc2c1-c1cc(-c2c(C)noc2C)cc2[nH]c(=O)[nH]c12 (racemic) [Example 2, 6-(3,5-dimethylisoxazol-4-yl)-4-(6-methylquinolin-5-yl)-1H-benzo[d]imidazol-2(3H)-one]
[1]
  IC50: 30.8 nM
[2]
  IC50: 135 nM
[3]
  IC50: 119 nM
[4]; [8]
  CC50 at 5 days: 19 nM

## Cc1noc(C)c1-c1cc(S(=O)(=O)NC2CCCC2)c2[nH]c(=O)[nH]c2c1 [Example 1, N-cyclopentyl-6-(3,5-dimethylisoxazol-4-yl)-2-oxo-2,3-dihydro-1H-benzo[d]imidazole-4-sulfonamide]
[2]
  IC50: 1410 nM
[3]
  IC50: 1070 nM
[4]; [8]
  CC50 at 5 days: 1120 nM

## Cc1noc(C)c1-c1cc(-c2c(C)noc2C)c2[nH]c(=O)[nH]c2c1 [Example 3, 4,6-bis(3,5-dimethylisoxazol-4-yl)-1H-benzo[d]imidazol-2(3H)-one]
[1]
  IC50: 119 nM
[2]
  IC50: 295 nM
[4]; [8]
  CC50 at 5 days: 196 nM

## Cc1noc(C)c1-c1cc(-c2cccnc2-c2ccccc2)c2[nH]c(=O)[nH]c2c1 [Example 4, 6-(3,5-dimethylisoxazol-4-yl)-4-(2-phenylpyridin-3-yl)-1H-benzo[d]imidazol-2(3H)-one]
[1]
  IC50: 37.2 nM
[2]
  IC50: 119 nM
[3]
  IC50: 141 nM
[4]; [8]
  CC50 at 5 days: 103 nM

## Cc1cnn(C)c1-c1cc(-c2c(C)noc2C)cc2[nH]c(=O)[nH]c12 [Example 5]
[1]
  IC50: 234 nM
[2]
  IC50: 350 nM
[3]
  IC50: 144 nM
[4]; [8]
  CC50 at 5 days: 233 nM

## Cc1noc(C)c1-c1cc(C(O)(CCC(F)(F)F)c2ccccn2)c2[nH]c(=O)[nH]c2c1 (centres unmarked) [Example 140, 6-(3,5-dimethylisoxazol-4-yl)-4-(4,4,4-trifluoro-1-hydroxy-1-(pyridin-2-yl)butyl)-1H-benzo[d]imidazol-2(3H)-one]
[4]; [9]
  CC50 at 5 days: 78.3 nM
[5]
  Ki: 35.2 nM
[6]
  Ki: 43.8 nM
[7]
  EC50: 217 nM

## Cc1noc(C)c1-c1cc(C(O)(CC(C)(C)C)c2ccccn2)c2[nH]c(=O)[nH]c2c1 (centres unmarked) [Example 143, 6-(3,5-dimethylisoxazol-4-yl)-4-(1-hydroxy-3,3-dimethyl-1-(pyridin-2-yl)butyl)-1H-benzo[d]imidazol-2(3H)-one]
[4]; [9]
  CC50 at 5 days: 20.4 nM
[5]
  Ki: 29.3 nM
[6]
  Ki: 8 nM
[7]
  EC50: 118 nM

## Cc1cccc(C(O)(c2ccccn2)c2cc(-c3c(C)noc3C)cc3[nH]c(=O)[nH]c23)n1 (centres unmarked) [Example 147, 6-(3,5-dimethylisoxazol-4-yl)-4-(hydroxy(6-methylpyridin-2-yl)(pyridin-2-yl)methyl)-1H-benzo[d]imidazol-2(3H)-one]
[4]; [9]
  CC50 at 5 days: 56.5 nM
[5]
  Ki: 81.6 nM
[6]
  Ki: 16 nM
[7]
  EC50: 107 nM

## Cc1noc(C)c1-c1cc(C(O)(c2ccccc2)c2ccccn2)c2[nH]c(=O)[nH]c2c1 (centres unmarked) [Example 149, 6-(3,5-dimethylisoxazol-4-yl)-4-(hydroxy(phenyl)(pyridin-2-yl)methyl)-H benzo[d]imidazol-2(3H)-one]
[4]; [9]
  CC50 at 5 days: 17.5 nM
[5]
  Ki: 17.3 nM
[6]
  Ki: 4.6 nM
[7]
  EC50: 73.8 nM

## Cc1noc(C)c1-c1cc(C(O)(c2ccccn2)c2ccccn2)c2[nH]c(=O)[nH]c2c1F [Example 169]
[4]; [9]
  CC50 at 5 days: 41.4 nM
[5]
  Ki: 62 nM
[6]
  Ki: 33.5 nM
[7]
  EC50: 128 nM

— patent US20160031868A1, “BENZIMIDAZOLONE DERIVATIVES AS BROMODOMAIN INHIBITORS” (GILEAD SCIENCES, INC., priority 2013, published 2016)
